Consider four compounds from ChEMBL document CHEMBL1201862, “PubChem BioAssay data set” (2004).

Among the test systems are A549; CAKI-1; HCT-116; HCT-15; HOP-92; IGROV-1; KM12; LOX IMVI; MDA-N; NCI-H23; NCI-H522; SF-268; SK-MEL-28; SK-MEL-2; SN12C; SNB-75; T47D; UACC-257; UACC-62; TK-10.
Holding throughout (assay): NCI tumour cell line growth inhibition, 48 h

Each structure is given as a SMILES string.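 Interpolation was linear, between the two tested concentrations surrounding the appropriate level; five concentrations were tested over 48 hours in 96-well plates. GI50 is the concentration that inhibits growth by half.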 Active and inactive are the calls of the source. No stated cut-off is given here; in the data, active = GI50 up to about 1.1 µM and inactive = higher.

As to `CCC(=O)Nc1ccc(N2C(=O)C(Cl)C2c2ccc(SC)cc2)cc1` (stereo unspecified), the GI50 in the experiment with A549 is > 100 µM (inactive); with CAKI-1 it was > 100 µM (inactive); in the experiment on HCT-116 it was > 100 µM (inactive); with HCT-15, 98.2 µM; with HOP-92, > 100 µM (inactive); in the experiment on IGROV-1, 94.2 µM (inactive). Also, the GI50 is > 100 µM (inactive) with KM12; 40.1 µM (inactive) in the experiment on LOX IMVI; > 100 µM (inactive) in the experiment on MDA-N; > 100 µM (inactive) with NCI-H23; 41 µM (inactive) with NCI-H522; 60.3 µM (inactive) with SF-268. Also, the GI50 with SK-MEL-28 was > 100 µM (inactive); with SK-MEL-2, 65 µM (inactive); with SN12C it was 50.2 µM (inactive); in the experiment with SNB-75, > 100 µM (inactive); in the experiment with T47D, 73.6 µM (inactive); in the experiment with UACC-257, 44.9 µM (inactive). Moreover, the GI50 with UACC-62 is > 100 µM (inactive).

In the case of `COc1cc(C)c(/C=C/C(=O)N2C(=O)OC[C@@H]2c2ccccc2)c(C)c1`, the GI50 with A549 is > 100 µM (inactive); in the experiment with CAKI-1, > 100 µM (inactive); with HCT-116 it was 89.3 µM (inactive); with HCT-15, 74 µM; with HOP-92, > 100 µM (inactive); with IGROV-1 it was > 100 µM (inactive). Besides, the GI50 with KM12 is 61.9 µM (inactive); with LOX IMVI it was > 100 µM (inactive); in the experiment on MDA-N, > 100 µM (inactive); in the experiment on NCI-H23, > 100 µM (inactive); in the experiment with NCI-H522, > 100 µM (inactive); in the experiment with SF-268 it was > 100 µM (inactive). Further, the GI50 is > 100 µM (inactive) with SK-MEL-28; > 100 µM (inactive) in the experiment on SK-MEL-2; > 100 µM (inactive) in the experiment on SN12C; 34.3 µM (inactive) with SNB-75; 23.2 µM (inactive) in the experiment with T47D; > 100 µM (inactive) in the experiment on TK-10. Besides, the GI50 in the experiment with UACC-257 is 88.7 µM (inactive).

Regarding `O=C1Nc2ccccc2S/C1=C\c1ccc(C(F)(F)F)cc1`, the GI50 in the experiment on A549 is > 100 µM (inactive); with CAKI-1, 4.59 µM (inactive); in the experiment on HCT-116 it was > 100 µM (inactive); in the experiment with HCT-15 it was greater than 100 µM; with HOP-92 it was > 100 µM (inactive); in the experiment with IGROV-1, > 100 µM (inactive). For the same compound, the GI50 in the experiment on KM12, in the experiment on LOX IMVI, with MDA-N, with NCI-H522, with SF-268 and with SK-MEL-28 was > 100 µM (inactive) in each case. Moreover, the GI50 was > 100 µM (inactive) with SK-MEL-2; > 100 µM (inactive) with SN12C; 37.1 µM (inactive) in the experiment on SNB-75; > 100 µM (inactive) with T47D; > 100 µM (inactive) in the experiment on TK-10; > 100 µM (inactive) in the experiment on UACC-257. In the experiment with UACC-62, the GI50 was > 100 µM (inactive).

Take `Cc1ccc2c(O)cc(-c3sc4ccccc4c3C)nc2n1`: the GI50 in the experiment on A549 was 22.7 µM (inactive); in the experiment on CAKI-1 it was 21.6 µM (inactive); in the experiment on HCT-116 it was 20.1 µM (inactive); with HCT-15, 17.7 µM; in the experiment with HOP-92 it was 4.46 µM (inactive); in the experiment on IGROV-1, 19.8 µM (inactive). Further, the GI50 in the experiment on KM12 was 15.7 µM (inactive); in the experiment on LOX IMVI it was 21.8 µM (inactive); in the experiment on MDA-N it was 13.2 µM (inactive); in the experiment on NCI-H522, 16.4 µM (inactive); in the experiment on SF-268, 21.6 µM (inactive); in the experiment on SK-MEL-28, 19.1 µM (inactive). The GI50 with SK-MEL-2 is 37 µM (inactive); in the experiment with SN12C it was 29 µM (inactive); in the experiment on SNB-75, 17.3 µM (inactive); in the experiment on T47D it was 14.5 µM (inactive); in the experiment with TK-10, 46.6 µM (inactive); in the experiment with UACC-257, 32.3 µM (inactive). Moreover, in the experiment on UACC-62, the GI50 is 16.9 µM (inactive).
